Measured values taken from BindingDB's records for doi:10.1021/ja0296733 (Abbott Laboratories, 2003).

Assays:
[1] = biological target: T1, Tyrosine-protein phosphatase non-receptor type 2 (Homo sapiens, UniProt P17706); test: PTP1B and TCPTP Inhibition Assay; conditions: pH 7.5; 22 °C
T1 sequence (P17706 whole entry): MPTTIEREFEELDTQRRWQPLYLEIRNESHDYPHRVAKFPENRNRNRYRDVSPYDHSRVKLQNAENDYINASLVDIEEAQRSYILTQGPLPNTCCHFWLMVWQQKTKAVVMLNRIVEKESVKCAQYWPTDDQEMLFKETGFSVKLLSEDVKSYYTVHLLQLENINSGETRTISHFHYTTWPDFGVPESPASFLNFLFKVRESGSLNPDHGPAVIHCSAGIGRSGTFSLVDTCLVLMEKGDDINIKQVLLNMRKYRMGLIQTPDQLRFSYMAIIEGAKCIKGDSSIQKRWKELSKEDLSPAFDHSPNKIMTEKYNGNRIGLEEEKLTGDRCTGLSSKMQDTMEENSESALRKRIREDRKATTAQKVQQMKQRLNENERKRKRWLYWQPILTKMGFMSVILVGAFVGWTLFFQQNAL
Procedure: (§1) For each concentration of test compound or DMSO control, the initial rates were used to fit the rectangular hyperbola of Michaelis-Menten by nonlinear regression analysis. The ratio of the apparent Km/Vmax vs inhibitor concentration was plotted, and the Ki was calculated by linear regression to be the negative X-intercept.

[2] = biological target: T2, Tyrosine-protein phosphatase non-receptor type 1 [1-298] (Homo sapiens, UniProt P18031); test: PTP1B and TCPTP Inhibition Assay; conditions: pH 7.5; 22 °C
T2 construct: 1-298
T2 sequence (P18031 whole entry): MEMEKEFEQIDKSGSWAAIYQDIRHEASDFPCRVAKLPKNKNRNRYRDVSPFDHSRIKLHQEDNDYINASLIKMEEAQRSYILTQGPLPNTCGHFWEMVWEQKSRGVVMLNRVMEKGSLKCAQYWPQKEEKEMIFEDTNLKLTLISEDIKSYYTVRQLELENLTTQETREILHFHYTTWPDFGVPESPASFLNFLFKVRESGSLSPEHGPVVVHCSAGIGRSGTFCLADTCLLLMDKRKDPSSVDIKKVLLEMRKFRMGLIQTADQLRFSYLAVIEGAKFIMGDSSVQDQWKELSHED
Procedure: as §1

| SMILES | Ki [1] [µM] | Ki [2] [µM] |
| --- | --- | --- |
| Cc1cccc(N(C(=O)C(=O)O)c2ccccc2C(=O)O)c1C | 164 | 293 |
| O=C(O)C(=O)N(c1ccccc1C(=O)O)c1cccc2ccccc12 [2-(Naphthalen-1-yloxalylamino)benzoic Acid] | 44 |  |
| CC(=O)N[C@@H](Cc1ccc(N(C(=O)C(=O)O)c2ccccc2C(=O)O)c2ccccc12)C(=O)NCCCCCOc1cc2ccccc2cc1C(=O)O [3-({5-[(N-Acetyl-3-{4-[(carboxycarbonyl)(2-carboxyphenyl)amino]-1-naphthyl}-L-alanyl)amino]pentyl}oxy)-2-naphthoic Acid] | 0.049 |  |
